The values below come from patent publication US8501772B2, “3,8-diaminotetrahydroquinoline derivative” (Zeria Pharmaceutical Co., Ltd., priority 2008, dated 2013).

Structures can show the parent of a compound that is named as a salt.

For the test, the target named is T1, human GHS-R1a (Homo sapiens, UniProt Q92847).
T1 construct: expressed in transfected cells
T1 sequence (Q92847 whole entry): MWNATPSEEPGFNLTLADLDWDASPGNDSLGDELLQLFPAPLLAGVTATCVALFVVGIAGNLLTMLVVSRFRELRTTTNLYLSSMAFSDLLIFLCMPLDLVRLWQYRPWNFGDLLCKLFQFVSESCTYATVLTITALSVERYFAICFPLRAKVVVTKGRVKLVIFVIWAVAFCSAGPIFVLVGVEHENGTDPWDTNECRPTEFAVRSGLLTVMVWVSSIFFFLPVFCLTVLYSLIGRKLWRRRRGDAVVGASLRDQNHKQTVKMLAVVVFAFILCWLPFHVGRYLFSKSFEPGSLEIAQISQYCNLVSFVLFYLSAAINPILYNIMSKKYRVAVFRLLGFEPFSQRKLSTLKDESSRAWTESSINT
Nature of the test: Agonistic activity by use of a cell line stably expressing human GHS-R1a (intracellular calcium increase). The class given is cell-based. The conditions noted are these: hGHS-R1a/CHO cells, percent increase in intracellular calcium vs 100 nM ghrelin; read-out: GHS-R agonistic activity (EC50: nM). As to the method:
CHO-K1 cells were transfected with human GHS-R1a genes, to thereby provide cells stably expressing GHS-R1a (hGHS-R1a/CHO), and the agonistic activity of each compound was evaluated by use of the cells based on percent increase in intracellular calcium as an index.
The hGHS-R1a/CHO cells were inoculated at 6×10^4 cells/well in a 96-well plate (Clear bottom/Black plate, product of Corning), and cultured in Ham's F12 medium containing 10% fetal bovine serum at 37° C. and 5% CO2 for 18 hours. After culture, the medium was removed, and then the hGHS-R1a/CHO cells were cultured for two hours in a Hanks' balanced salt solution/HEPES (HBSS/HEPES, 100 μL) containing a calcium fluorescent indicator (4 μM Fluo-3AM, product of Dojin), 2 mM Probenecid, 0.1% Pluronic F-127, and 0.1% BSA, whereby the indicator was incorporated into the cells. After washing the cells, HBSS/HEPES (175 μL/well) containing 2 mM Probenecid and 0.1% BSA was added to the plate, and the fluorescence before and after addition of each test compound was determined by means of FLEXstation (Ex: 485 nm, Em: 525 nm, product of Molecular Devices). Each test compound was multi-fold diluted with dimethyl sulfoxide and then diluted with HBSS/HEPES containing 2 mM Probenecid, 0.04% Pluronic F-127, and 0.1% BSA, to thereby attain a final concentration of interest. The thus-diluted solution (25 μL/well) was added to the wells.
Agonistic activity(%)=(A−B)/(C−D)×100
A: Fluorescence intensity after addition of test compound
B: Fluorescence intensity before addition of test compound
C: Fluorescence intensity after addition of 100 nM ghrelin
D: Fluorescence intensity before addition of ghrelin
For orientation: Calcium flux is commonly read through the fluorescence of an indicator in the cells.
The EC50 is the concentration giving half of the maximal effect. Take `CC[C@](C)(N)C(=O)N[C@H](CC(C)C)C(=O)NC1Cc2cccc(N3CCCC3=O)c2N(Cc2ccsc2)C1=O` (stereo partly drawn) [Example 25j, (2R)-2-((S)-2-amino-2-methylbutanamido)-4-methyl-N-[2-oxo-8-(2-oxopyrrolidin-1-yl)-1-(thiophen-3-ylmethyl)-1,2,3,4-tetrahydroquinolin-3-yl]pentanamide]: the concentration for a half-maximal effect (EC50) is 4.13 nM.

As to `CC(C)(N)C(=O)N[C@H](Cc1c[nH]c2ccccc12)C(=O)NC1Cc2cccc(N3CCCC3=O)c2N(Cc2ccsc2)C1=O` (stereo partly drawn) [Example 25l, N-[(2R)-3-(1H-indol-3-yl)-1-oxo-1-[2-oxo-8-(2-oxopyrrolidin-1-yl)-1-(thiophen-3-ylmethyl)-1,2,3,4-tetrahydroquinolin-3-ylamino]propan-2-yl]-2-amino-2-methylpropanamide], the EC50 is under 0.1 nM. Then `CC[C@@](C)(N)C(=O)N[C@H](Cc1cn(C)c2ccccc12)C(=O)NC1Cc2cccc(N3CCCC3=O)c2N(Cc2ccsc2)C1=O` (stereo partly drawn) [Example 34i, (2R)-2-amino-2-methyl-N-[(2R)-3-(1-methyl-1H-indol-3-yl)-1-oxo-1-[2-oxo-8-(2-oxopyrrolidin-1-yl)-1-(thiophen-3-ylmethyl)-1,2,3,4-tetrahydroquinolin-3-ylamino]propan-2-yl]butanamide hydrochloride], with 0.2 nM; and `CC(C)(N)C(=O)N[C@H](Cc1cn(CCF)c2ccccc12)C(=O)NC1Cc2cccc(N3CCCC3=O)c2N(Cc2ccsc2)C1=O` (stereo partly drawn) [Example 34d, 2-amino-N-[(2R)-3-[1-(2-fluoroethyl)-1H-indol-3-yl]-1-oxo-1-[2-oxo-8-(2-oxopyrrolidin-1-yl)-1-(thiophen-3-ylmethyl)-1,2,3,4-tetrahydroquinolin-3-ylamino]propan-2-yl]-2-methylpropanamide hydrochloride], with 0.22 nM; and `CC(C)C[C@@H](NC(=O)C(C)(C)N)C(=O)NC1Cc2cccc(N3CCCC3=O)c2N(Cc2ccsc2)C1=O` (stereo partly drawn) [Example 34k, (2R)-2-(2-amino-2-methylpropanamido)-4-methyl-N-[2-oxo-8-(2-oxopyrrolidin-1-yl)-1-(thiophen-3-ylmethyl)-1,2,3,4-tetrahydroquinolin-3-yl]pentanamide(R)-(−)-mandelate], with 0.47 nM.

In the case of `CC[C@@](C)(N)C(=O)N[C@H](CC(C)C)C(=O)NC1Cc2cccc(N3CCCC3=O)c2N(Cc2ccsc2)C1=O` (stereo partly drawn) [Example 34h, (2R)-2-((R)-2-amino-2-methylbutanamido)-4-methyl-N-[2-oxo-8-(2-oxopyrrolidin-1-yl)-1-(thiophen-3-ylmethyl)-1,2,3,4-tetrahydroquinolin-3-yl]pentanamide hydrochloride], the EC50 was found to be 0.74 nM.

For the molecule `CCN(CC)c1cccc2c1N(Cc1ccccn1)C(=O)C(NC(=O)[C@@H](CC(C)C)NC(=O)[C@H](N)Cc1ccc(O)cc1)C2` (stereo partly drawn) [Example 39, (2R)-2-((R)-2-Amino-3-(4-hydroxyphenyl)propanamido)-N-(8-(diethylamino)-2-oxo-1-(pyridin-2-ylmethyl)-1,2,3,4-tetrahydroquinolin-3-yl)-4-methylpentanamide hydrochloride], the concentration for a half-maximal effect (EC50) was determined as 12.9 nM. To `CC(C)n1cc(C[C@@H](NC(=O)C(C)(C)N)C(=O)NC2Cc3cccc(N4CCCC4=O)c3N(Cc3ccsc3)C2=O)c2ccccc21` (stereo partly drawn) [Example 34f, 2-amino-N-[(2R)-3-(1-isopropyl-1H-indol-3-yl)-1-oxo-1-[2-oxo-8-(2-oxopyrrolidin-1-yl)-1-(thiophen-3-ylmethyl)-1,2,3,4-tetrahydroquinolin-3-ylamino]propan-2-yl]-2-methylpropanamide hydrochloride] belongs 1.13 nM. In the case of `Cn1cc(C[C@@H](NC(=O)C(C)(C)N)C(=O)NC2Cc3cccc(N4CCCC4=O)c3N(Cc3ccsc3)C2=O)c2ccccc21` (stereo partly drawn) [Example 34b, 2-amino-2-methyl-N-[(2R)-3-(1-methyl-1H-indol-3-yl)-1-oxo-1-[2-oxo-8-(2-oxopyrrolidin-1-yl)-1-(thiophen-3-ylmethyl)-1,2,3,4-tetrahydroquinolin-3-ylamino]propan-2-yl]propanamide hydrochloride], the EC50 is 0.052 nM. Consider `CCCn1cc(C[C@@H](NC(=O)C(C)(C)N)C(=O)NC2Cc3cccc(N4CCCC4=O)c3N(Cc3ccsc3)C2=O)c2ccccc21` (stereo partly drawn) [Example 34e, 2-amino-2-methyl-N-[(2R)-1-oxo-1-[2-oxo-8-(2-oxopyrrolidin-1-yl)-1-(thiophen-3-ylmethyl)-1,2,3,4-tetrahydroquinolin-3-ylamino]-3-(1-propyl-1H-indol-3-yl)propan-2-yl]propanamide hydrochloride], for which the EC50 came out at 0.07 nM. Regarding `CC(C)C[C@@H](NC(=O)C(C)(C)N)C(=O)NC1Cc2cccc(N3CCCC3=O)c2N(Cc2cccs2)C1=O` (stereo partly drawn) [Example 34m, (2R)-2-(2-amino-2-methylpropanamido)-4-methyl-N-[2-oxo-8-(2-oxopyrrolidin-1-yl)-1-(thiophen-2-ylmethyl)-1,2,3,4-tetrahydroquinolin-3-yl]pentanamide hydrochloride], the EC50 came out at 1.5 nM. Then `CC(C)C[C@@H](NC(=O)C(C)(C)N)C(=O)NC1Cc2cccc(N3C(=O)CCC3O)c2N(Cc2ccsc2)C1=O` (stereo partly drawn) [Example 66, (2R)-2-(2-amino-2-methylpropanamido)-N-(8-(2-hydroxy-5-oxopyrrolidin-1-yl)-2-oxo-1-(thiophen-3-ylmethyl)-1,2,3,4-tetrahydroquinolin-3-yl)-4-methylpentanamide], with 0.45 nM. Then `CCn1cc(C[C@@H](NC(=O)C(C)(C)N)C(=O)NC2Cc3cccc(N4CCCC4=O)c3N(Cc3ccsc3)C2=O)c2ccccc21` (stereo partly drawn) [Example 34c, 2-amino-N-[(2R)-3-(1-ethyl-1H-indol-3-yl)-1-oxo-1-[2-oxo-8-(2-oxopyrrolidin-1-yl)-1-(thiophen-3-ylmethyl)-1,2,3,4-tetrahydroquinolin-3-ylamino]propan-2-yl]-2-methylpropanamide hydrochloride], with 0.02 nM; and `CC(C)C[C@@H](NC(=O)[C@@H](C)N)C(=O)NC1Cc2cccc(N3CCCC3=O)c2N(Cc2ccsc2)C1=O` (stereo partly drawn) [Example 34g, (2R)-2-((R)-2-aminopropanamido)-4-methyl-N-[2-oxo-8-(2-oxopyrrolidin-1-yl)-1-(thiophen-3-ylmethyl)-1,2,3,4-tetrahydroquinolin-3-yl]pentanamide hydrochloride], with 2.75 nM; and `CC(C)C[C@@H](NC(=O)C(C)(C)N)C(=O)NC1Cc2cccc(N3CCCC3=O)c2N(Cc2ccccc2)C1=O` (stereo partly drawn) [Example 35, (2R)-2-(2-Amino-2-methylpropanamido)-N-[1-benzyl-2-oxo-8-(2-oxopyrrolidin-1-yl)-1,2,3,4-tetrahydroquinolin-3-yl]-4-methylpentanamide hydrochloride], with 0.9 nM. Then `CC(C)C[C@@H](NC(=O)C(C)(C)N)C(=O)NC1Cc2ccccc2N(Cc2ccccc2)C1=O` (stereo partly drawn) [Comp. Ex. 1, (2R)-2-(2-Amino-2-methylpropanamido)-N-(1-benzyl-2-oxo-1,2,3,4-tetrahydroquinolin-3-yl)-4-methylpentanamide hydrochloride, reference compound], with 149 nM. On to `CC(C)C[C@@H](NC(=O)[C@H](C)N)C(=O)NC1Cc2cccc(N3CCCC3=O)c2N(Cc2ccsc2)C1=O` (stereo partly drawn) [Example 25h, (2R)-2-((S)-2-aminopropanamido)-4-methyl-N-[2-oxo-8-(2-oxopyrrolidin-1-yl)-1-(thiophen-3-ylmethyl)-1,2,3,4-tetrahydroquinolin-3-yl]pentanamide], for which the EC50 amounted to 6.13 nM.
